Measurements taken from patent publication US11154589B2, “Antimicrobial composition combinations comprising star shaped peptide polymers” (The University of Melbourne, priority 2016, dated 2021).
Values after ≈ are worked out from the molar mass of the structure shown. Like-named read-outs stand apart in the source and are kept apart here. Marks after values point to notes of the source that are not given here.

What was measured:
[1] = tested on: CMDR P. aeruginosa (FADDI-PA067); test: Antibiogram of CMDR P. aeruginosa; type: cell-based, Pseudomonas aeruginosa; details: for Susceptibility: interpreted by CLSI resistant breakpoints
[2] = tested on: CMDR A. baumannii (FADDI-AB156); test: Antibiogram of CMDR A. baumannii (MIC); type: cell-based, Acinetobacter baumannii; details: for Susceptibility: interpreted by CLSI resistant breakpoints
[3] = tested on: Acinetobacter baumannii (A. baumannii, ATCC 19606); test: MBC determination (in vitro antimicrobial experiment, CFU counting); type: cell-based; details: Acinetobacter baumannii, ATCC19606; compound alone; A. baumannii (wild-type)
Description: (§1) Freeze-dried cultures of Escherichia coli (E. coli, ATCC 25922), Klebsiella pneumoniae (K. pneumoniae, ATCC 13883), Pseudomonas aeruginosa (P. aeruginosa, ATCC 47085), Acinetobacter baumannii (A. baumannii, ATCC 19606), colistin and multidrug-resistant (CMDR) A. baumannii (FADDI-AB156), and CMDR P. aeruginosa (FADDI-PA067) were grown aerobically and maintained by passage at ambient temperature on horse blood agar (10% v/v defibrinated horse blood, 4.4% w/v Oxoid Blood Agar Base No. 2). Overnight cultures were made from transferring a colony (ca. half a loop) from the agar plates to culture tubes containing sterilized Luria-Bertani broth (LB, 1% w/v Bacto™ Tryptone, 1% w/v NaCl, 0.5% w/v Oxoid Yeast Extract) (20 mL). Bacterial cultures were incubated overnight at 37° C. with aeration and without agitation, with the exception of the two P. aeruginosa strains (ATCC 47085 and FADDI-PA067) which were cultured at 37° C. with aeration and agitation (150 rpm). On the next day, for E. coli, K. pneumonia, P. aeruginosa (ATCC 47085), and CMDR P. aeruginosa (FADDI-PA067), small aliquots (i.e., 0.5-3 mL) were taken from the culture tubes, further diluted with LB (20 mL), and incubated for 3-4 h at 37° C. with aeration before use. All bacterial cultures were cultured without agitation, with the exception of P. aeruginosa ATCC 47085 and FADDI-PA067 which were cultured with shaking at 150 rpm. For A. baumannii, an aliquot of 0.5 mL was taken from the overnight culture tube, further diluted with LB (200 mL), and incubated overnight at 37° C. with aeration before use.
(§2) The 96-well plate was then incubated at 37° C. for 1.5 or 3 h. For each well, microbial solution was diluted with saline (0.9% NaCl solution) using an appropriate dilution factor and placed on a LB agar plate (LB broth containing 15 g/L Oxoid Blood Agar Base No. 2). For E. coli, K. pneumoniae, and A. Baumannii (ATCC 19606 and FADDI-AB156), the agar plates were incubated overnight at room temperature, and then at 37° C. with aeration for 2 h. For P. Aeruginosa (ATCC 47085 and FADDI-PA067), the agar plates were incubated at 37° C. with aeration. The number of colony-forming units (CFU) was counted and expressed as CFU/mL. Positive controls consisting of cells without any treatment were used. […] A minimum of two independent experiments (biological replicates) of the assay were conducted and three technical replicates were used in each experiment. Data is expressed as mean±standard deviation (SD) and analysed using student's t-test.

[4] = tested on: Pseudomonas aeruginosa (P. aeruginosa, ATCC 47085); test: as above; type: cell-based; details: Pseudomonas aeruginosa, ATCC47085; compound alone; P. aeruginosa (wild-type)
Description: as §1, §2

[5] = tested on: CMDR P. aeruginosa (FADDI-PA067); test: as above; type: cell-based, Pseudomonas aeruginosa; details: Pseudomonas aeruginosa, compound alone
Description: as §1, §2

[6] = tested on: CMDR A. baumannii (FADDI-AB156); test: as above; type: cell-based, Acinetobacter baumannii; details: Acinetobacter baumannii, compound alone
Description: as §1, §2

[7] = tested on: CMDR A. baumannii (FADDI-AB156); test: S16-antibiotic co-administration, synergy by Bliss Independence and HSA models; type: cell-based, Acinetobacter baumannii; details: for MBC in combination: S16 and antibiotic co-administered, each at MBC50, 3 h
Description: as §2
(§3) The Bliss Independence and HSA models were used to calculate drug synergism. […] Biotechnol. 31, 160-165 (2013). With the Bliss Independence model, synergism was calculated using the formula, BICAB=A+B−AB (1), where A and B are the effects of the two drugs in isolation and BICAB is the combined effect of the two drugs as predicted by the Bliss Independence model. […] In the HSA model, if CAB is greater than the greater of A and B, CAB>max(A, B), synergy is observed. The quantitative effect of the compounds when administered alone (i.e., A and B) or in combination (i.e., CAB) was defined as the fractional reduction of the population, R=1−CFUt/CFU0, where CFUt is the CFU/mL measured after treatment, and CFU0 is the CFU/mL measured before treatment.

[8] = tested on: CMDR P. aeruginosa (FADDI-PA067); test: as above; type: cell-based, Pseudomonas aeruginosa; details: for MBC in combination: S16 and antibiotic co-administered, each at MBC50, 3 h
Description: as §2, §3

[9] = tested on: Acinetobacter baumannii (A. baumannii, ATCC 19606); test: as above; type: cell-based; details: for MBC in combination: S16 and antibiotic co-administered, each at MBC50
Description: as §2, §3

[10] = tested on: Pseudomonas aeruginosa (P. aeruginosa, ATCC 47085); test: as above; type: cell-based; details: for MBC in combination: S16 and antibiotic co-administered, each at MBC50
Description: as §2, §3

[11] = CMDR A. baumannii (FADDI-AB156)
[12] = Acinetobacter baumannii, CMDR A. baumannii (FADDI-AB156), read-out: MIC
[13] = antibiotic in combination with S16, 3 h, Bliss Independence model
[14] = antibiotic in combination with S16, 3 h, Highest Single Agent model
[15] = co-administered S16 (at MBC50) and antibiotic, antibiotic concentration giving at least 2-log reduction in CFU/mL, 3 h

## CCN1CCN(C(=O)N[C@@H](C(=O)N[C@@H]2C(=O)N3[C@@H]2SC(C)(C)[C@@H]3C(=O)O)c2ccccc2)C(=O)C1=O [Piperacillin]
[1]
  Susceptibility: Resistant

## Colistin Sulfate
[1]
  Susceptibility, concentration in parentheses: > 110.8 µM
  Susceptibility: Resistant
[2]; [11]
  Susceptibility: Resistant
[2]; CMDR A. baumannii (FADDI-AB156), read-out: MIC
  MIC: 13.8 µM

## O=C(O)c1cn(C2CC2)c2cc(N3CCNCC3)c(F)cc2c1=O [Ciprofloxacin]
[2]; [12]
  MIC: ≥ 12.1 µM

## NC[C@H]1O[C@H](O[C@H]2[C@H](O)[C@@H](O[C@H]3O[C@H](CO)[C@@H](O)[C@H](N)[C@H]3O)[C@H](N)C[C@@H]2N)[C@H](N)C[C@@H]1O [Tob, tobramycin]
[3]
  MBC: 15.2 µM (≈ 7.11 µg/mL)
[4]
  MBC: 3.9 µM (≈ 1.82 µg/mL)
[5]
  MBC: 239 µM (≈ 112 µg/mL)
[6]
  MBC: > 2190 µM
[7]; 3 h time point
  Interaction with S16 as evaluated by the Bliss Independence and HSA models (in words): non-synergistic
[7]
  MBC in combination: 2190.3 µM
[7]; all compounds at MBC50, t=3 h
  Antimicrobial activity on co-administration with S16 compared to compounds alone (log change in CFU/mL): antagonistic
[7]; [13]
  Synergistic? (Yes/No) Bliss*: No
[7]; [14]
  Synergistic? (Yes/No) HAS*: No
[1]
  Susceptibility: Resistant
[8]; 3 h time point
  Interaction with S16 as evaluated by the Bliss Independence and HSA models (in words): non-synergistic
[8]
  MBC in combination: 119.7 µM
[8]; all compounds at MBC50, t=3 h
  Antimicrobial activity on co-administration with S16 compared to compounds alone (log change in CFU/mL): antagonistic
[8]; [13]
  Synergistic? (Yes/No) Bliss*: No
[8]; [14]
  Synergistic? (Yes/No) HAS*: No
[9]; A. baumannii wild-type, 3 h time point
  Interaction with S16 as evaluated by the Bliss Independence and HSA models (in words): non-synergistic
[9]; A. baumannii wild-type, all compounds at MBC50, t=3 h
  Antimicrobial activity on co-administration with S16 compared to compounds alone (log change in CFU/mL): antagonism
[9]; A. baumannii, 3 h
  MBC in combination: 7.6 µM
[9]; antibiotic in combination with S16, A. baumannii, 3 h, Bliss Independence model
  Synergistic? (Yes/No) Bliss*: No
[9]; antibiotic in combination with S16, A. baumannii, 3 h, Highest Single Agent model
  Synergistic? (Yes/No) HAS*: No
[10]; P. aeruginosa wild-type, 3 h time point
  Interaction with S16 as evaluated by the Bliss Independence and HSA models (in words): non-synergistic
[10]; P. aeruginosa wild-type, all compounds at MBC50, t=3 h
  Antimicrobial activity on co-administration with S16 compared to compounds alone (log change in CFU/mL): antagonism
[10]; P. aeruginosa, 3 h
  MBC in combination: 1.9 µM
[10]; antibiotic in combination with S16, P. aeruginosa, 3 h, Bliss Independence model
  Synergistic? (Yes/No) Bliss*: No
[10]; antibiotic in combination with S16, P. aeruginosa, 3 h, Highest Single Agent model
  Synergistic? (Yes/No) HAS*: No
[2]; [12]
  MIC: > 2190 µM
[2]; [11]
  Susceptibility: Resistant

## CC(C)(O/N=C(\C(=O)N[C@@H]1C(=O)N2C(C(=O)[O-])=C(C[n+]3ccccc3)CS[C@H]12)c1csc(N)n1)C(=O)O [Ceftazidime]
[1]
  Susceptibility: Resistant
[2]; [12]
  MIC: ≥ 117 µM
[2]; [11]
  Susceptibility: Resistant

## C[C@@H](O)[C@H]1C(=O)N2C(C(=O)O)=C(SCCN=CN)C[C@H]12 [Imi, imipenem]
[3]
  MBC: 37.8 µM (≈ 11.3 µg/mL)
[6]
  MBC: 355 µM (≈ 106 µg/mL)
[7]; MBCeff in combination versus MBC alone
  Fold reduction of MBC: 4.0 fold
[7]
  MBC in combination: 177.4 µM
[7]; [15]
  MBC in combination, MBCeff: 88.2^a μM
[9]; A. baumannii, 3 h
  MBC in combination: 19.0 µM
[2]; [12]
  MIC: 355 µM (≈ 106 µg/mL)

## CC1(C)S[C@@H]2[C@H](NC(=O)[C@H](C(=O)O)c3ccsc3)C(=O)N2[C@H]1C(=O)O [Ticarcillin]
[1]
  Susceptibility: Resistant

## NCC[C@H](O)C(=O)N[C@@H]1C[C@H](N)[C@@H](O[C@H]2O[C@H](CN)[C@@H](O)[C@H](O)[C@H]2O)[C@H](O)[C@H]1O[C@H]1O[C@H](CO)[C@@H](O)[C@H](N)[C@H]1O [Amikacin]
[2]; [12]
  MIC: ≥ 109 µM
[2]; [11]
  Susceptibility: Resistant

## CCn1cc(C(=O)O)c(=O)c2cc(F)c(N3CCNCC3)cc21 [Norfloxacin]
[2]; [12]
  MIC: ≥ 50.1 µM
[2]; [11]
  Susceptibility: Resistant

## C[C@@H](O)[C@H]1C(=O)N2C(C(=O)O)=C(S[C@@H]3CN[C@H](C(=O)N(C)C)C3)[C@H](C)[C@H]12 [Meropenem]
[2]; [12]
  MIC: ≥ 41.7 µM
[2]; [11]
  Susceptibility: Resistant

## Cc1nnc(SCC2=C(C(=O)O)N3C(=O)[C@@H](NC(=O)Cn4cnnn4)[C@H]3SC2)s1 [Cefazolin]
[2]; [12]
  MIC: ≥ 141 µM
[2]; [11]
  Susceptibility: Resistant

## C[C@H]1[C@H](NC(=O)/C(=N\OC(C)(C)C(=O)O)c2csc(N)n2)C(=O)N1S(=O)(=O)O [Aztreonam]
[1]
  Susceptibility: Resistant

## CO/N=C(\C(=O)N[C@@H]1C(=O)N2C(C(=O)[O-])=C(C[N+]3(C)CCCC3)CS[C@H]12)c1csc(N)n1 [Cefepime]
[2]; [12]
  MIC: ≥ 133 µM
[2]; [11]
  Susceptibility: Resistant

## COc1cc(Cc2cnc(N)nc2N)cc(OC)c1OC [Trimethoprim]
[2]; [12]
  MIC: ≥ 55.1 µM
[2]; [11]
  Susceptibility: Resistant

## CO[C@@]1(NC(=O)Cc2cccs2)C(=O)N2C(C(=O)O)=C(COC(N)=O)CS[C@@H]21 [Cefoxitin]
[2]; [12]
  MIC: ≥ 150 µM
[2]; [11]
  Susceptibility: Resistant

## CO/N=C(\C(=O)N[C@@H]1C(=O)N2C(C(=O)O)=C(CSc3nc(=O)c(=O)[nH]n3C)CS[C@H]12)c1csc(N)n1 [Ceftriaxone]
[2]; [12]
  MIC: ≥ 115 µM
[2]; [11]
  Susceptibility: Resistant

## O=C1CN(/N=C/c2ccc([N+](=O)[O-])o2)C(=O)N1 [Nitrofurantoin]
[2]; [12]
  MIC: ≥ 2150 µM

## CCn1cc(C(=O)O)c(=O)c2ccc(C)nc21 [Nalidixic Acid]
[2]; Acinetobacter baumannii
  MIC: ≥ 138 µM
[2]; [11]
  Susceptibility: Resistant

## C[C@H]1c2cccc(O)c2C(=O)C2=C(O)[C@]3(O)C(=O)C(C(N)=O)=C(O)[C@@H](N(C)C)[C@@H]3[C@@H](O)[C@@H]21 [Dox, doxycycline]
[4]
  MBC: 50.7 µM (≈ 22.5 µg/mL)
[5]
  MBC: 630 µM (≈ 280 µg/mL)
[8]; MBCeff with S16 versus MBC alone
  Fold reduction of MBC: 4.2 fold
[8]
  MBC in combination: 295.3 µM
[8]; [15]
  MBC in combination, MBCeff: 148.2^a μM
[10]; P. aeruginosa, 3 h
  MBC in combination: 25.3 µM
